ChEMBL document CHEMBL1201861, “Genomics of Drug Sensitity in Cancer screening data, Wellcome Trust Sanger Institute”
pIC50: −log10 of the molar value.

Key:
Assay in all cases: cells
OPM-2 = type: functional, cell-based, Homo sapiens; settings: Homo sapiens, OPM-2;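 further: growth of OPM-2 cells measured with a viability assay, IC50 for suppression of proliferation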
Description: SANGER: Inhibition of human OPM-2 cell growth in a cell viability assay.

CMK = type: functional, cell-based, Homo sapiens; settings: Homo sapiens, CMK;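 further: growth inhibition of CMK cells, read out as cell viability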
Description: SANGER: Inhibition of human CMK cell growth in a cell viability assay.

SCC-3 = type: functional, cell-based, Homo sapiens; settings: Homo sapiens, SCC-3;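 further: cell viability assay measuring inhibition of SCC-3 cell growth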
Description: SANGER: Inhibition of human SCC-3 cell growth in a cell viability assay.

NCI-H1694 = type: functional, cell-based, Homo sapiens; settings: Homo sapiens, NCI-H1694;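 further: cell viability assay measuring inhibition of growth in human NCI-H1694 cells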
Description: SANGER: Inhibition of human NCI-H1694 cell growth in a cell viability assay.

SIMA = type: functional, cell-based, Homo sapiens; settings: Homo sapiens, SIMA;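 further: growth inhibition of SIMA cells, measured with a cell viability readout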
Description: SANGER: Inhibition of human SIMA cell growth in a cell viability assay.

SR = type: functional, cell-based, Homo sapiens; settings: Homo sapiens, SR
Description: SANGER: Inhibition of human SR cell growth in a cell viability assay.

SK-MM-2 = type: functional, cell-based, Homo sapiens; settings: Homo sapiens, SK-MM-2;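 further: growth inhibition of human SK-MM-2 cells, read out with a cell viability assay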
Description: SANGER: Inhibition of human SK-MM-2 cell growth in a cell viability assay.

Kasumi 1 = type: functional, cell-based, Homo sapiens; settings: Homo sapiens, Kasumi 1;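 further: growth inhibition of human Kasumi-1 cells, read out by a cell viability assay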
Description: SANGER: Inhibition of human KASUMI-1 cell growth in a cell viability assay.

T47D = type: functional, cell-based, Homo sapiens; settings: Homo sapiens, T47D;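 further: growth inhibition of human T47D cells, measured with a cell viability assay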
Description: SANGER: Inhibition of human T47D cell growth in a cell viability assay.

NCI-H441 = type: functional, cell-based, Homo sapiens; settings: Homo sapiens, NCI-H441;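 further: growth inhibition of NCI-H441 cells, read out with a cell viability assay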
Description: SANGER: Inhibition of human NCI-H441 cell growth in a cell viability assay.

SCC-4 = type: functional, cell-based, Homo sapiens; settings: Homo sapiens, SCC-4;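 further: growth inhibition of human SCC-4 cells, read out as cell viability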
Description: SANGER: Inhibition of human SCC-4 cell growth in a cell viability assay.

COR-L105 = type: functional, cell-based, Homo sapiens; settings: Homo sapiens, COR-L105;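 further: cell growth inhibition determined with a viability assay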
Description: SANGER: Inhibition of human COR-L105 cell growth in a cell viability assay.

BEN = type: functional, cell-based, Homo sapiens; settings: Homo sapiens, BEN;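 further: growth inhibition of the BEN cell line, read out with a cell viability assay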
Description: SANGER: Inhibition of human BEN cell growth in a cell viability assay.

A2780 = type: functional, cell-based, Homo sapiens; settings: Homo sapiens, A2780;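 further: growth inhibition of A2780 cells, read out with a cell viability assay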
Description: SANGER: Inhibition of human A2780 cell growth in a cell viability assay.

HOP-92 = type: functional, cell-based, Homo sapiens; settings: Homo sapiens, HOP-92;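 further: cell viability readout, with IC50 reflecting inhibition of HOP-92 cell growth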
Description: SANGER: Inhibition of human HOP-92 cell growth in a cell viability assay.

NCI-H358 = type: functional, cell-based, Homo sapiens; settings: Homo sapiens, NCI-H358;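 further: growth inhibition of NCI-H358 human cells, read out with a cell viability assay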
Description: SANGER: Inhibition of human NCI-H358 cell growth in a cell viability assay.

CAL-27 = type: functional, cell-based, Homo sapiens; settings: Homo sapiens, CAL-27;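 further: Viability-based readout, IC50 reflecting inhibition of CAL-27 cell growth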
Description: SANGER: Inhibition of human CAL-27 cell growth in a cell viability assay.

OE33 = type: functional, cell-based, Homo sapiens; settings: Homo sapiens, OE33;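 further: growth inhibition of human OE33 cells, measured by a cell viability assay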
Description: SANGER: Inhibition of human OE33 cell growth in a cell viability assay.

NCI-H1651 = type: functional, cell-based, Homo sapiens; settings: Homo sapiens, NCI-H1651;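 further: Read-out is a cell viability assay, with IC50 expressing inhibition of NCI-H1651 cell growth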
Description: SANGER: Inhibition of human NCI-H1651 cell growth in a cell viability assay.

Hs-578T = type: functional, cell-based, Homo sapiens; settings: Homo sapiens, Hs-578T
Description: SANGER: Inhibition of human Hs-578-T cell growth in a cell viability assay.

NCI-H727 = type: functional, cell-based, Homo sapiens; settings: Homo sapiens, NCI-H727;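 further: growth inhibition of human NCI-H727 cells, read out with a cell viability assay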
Description: SANGER: Inhibition of human NCI-H727 cell growth in a cell viability assay.

A2058 = type: functional, cell-based, Homo sapiens; settings: Homo sapiens, A2058;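 further: reduction of A2058 cell growth, read out with a viability assay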
Description: SANGER: Inhibition of human A2058 cell growth in a cell viability assay.

NCI-H2030 = type: functional, cell-based, Homo sapiens; settings: Homo sapiens, NCI-H2030;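 further: growth inhibition of human NCI-H2030 cells, read out by a cell viability assay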
Description: SANGER: Inhibition of human NCI-H2030 cell growth in a cell viability assay.

CHL-1 = type: functional, cell-based, Homo sapiens; settings: Homo sapiens, CHL-1;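 further: cell growth inhibition, read out with a cell viability assay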
Description: SANGER: Inhibition of human CHL-1 cell growth in a cell viability assay.

EHEB = type: functional, cell-based, Homo sapiens; settings: Homo sapiens, EHEB;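 further: growth inhibition of human EHEB cells, read out with a cell viability assay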
Description: SANGER: Inhibition of human EHEB cell growth in a cell viability assay.

HuO-3N1 = type: functional, cell-based, Homo sapiens; settings: Homo sapiens, HuO-3N1;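 further: cell viability readout used to measure how strongly compounds suppress proliferation of human HuO-3N1 cells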
Description: SANGER: Inhibition of human HuO-3N1 cell growth in a cell viability assay.

COLO-679 = type: functional, cell-based, Homo sapiens; settings: Homo sapiens, COLO-679
Description: SANGER: Inhibition of human COLO-679 cell growth in a cell viability assay.

PC-14 = type: functional, cell-based, Homo sapiens; settings: Homo sapiens, PC-14;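 further: cell viability assay measuring inhibition of PC-14 cell growth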
Description: SANGER: Inhibition of human PC-14 cell growth in a cell viability assay.

SW1710 = type: functional, cell-based, Homo sapiens; settings: Homo sapiens, SW1710;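 further: growth inhibition of SW1710 cells, determined with a cell viability assay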
Description: SANGER: Inhibition of human SW1710 cell growth in a cell viability assay.

DOK = type: functional, cell-based, Homo sapiens; settings: Homo sapiens, DOK;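 further: cell viability assay read-out, values reflect inhibition of cell growth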
Description: SANGER: Inhibition of human DOK cell growth in a cell viability assay.

GMS-10 = type: functional, cell-based, Homo sapiens; settings: Homo sapiens, GMS-10;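 further: growth inhibition of GMS-10 cells, read out as cell viability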
Description: SANGER: Inhibition of human GMS-10 cell growth in a cell viability assay.

NCI-H1793 = type: functional, cell-based, Homo sapiens; settings: Homo sapiens, NCI-H1793;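 further: cell growth inhibition, read out by a cell viability assay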
Description: SANGER: Inhibition of human NCI-H1793 cell growth in a cell viability assay.

U-118-MG = type: functional, cell-based, Homo sapiens; settings: Homo sapiens, U-118-MG
Description: SANGER: Inhibition of human U-118-MG cell growth in a cell viability assay.

SK-HEP1 = type: functional, cell-based, Homo sapiens, SK-HEP-1; settings: Homo sapiens, SK-HEP1;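 further: cell viability readout used to quantify reduction in proliferation of human SK-HEP-1 cells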
Description: SANGER: Inhibition of human SK-HEP-1 cell growth in a cell viability assay.

NCI-H292 = type: functional, cell-based, Homo sapiens; settings: Homo sapiens, NCI-H292;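 further: growth inhibition of NCI-H292 cells, read out with a cell viability assay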
Description: SANGER: Inhibition of human NCI-H292 cell growth in a cell viability assay.

UACC-893 = type: functional, cell-based, Homo sapiens; settings: Homo sapiens, UACC-893
Description: SANGER: Inhibition of human UACC-893 cell growth in a cell viability assay.

NCI-H650 = type: functional, cell-based, Homo sapiens; settings: Homo sapiens, NCI-H650;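 further: growth inhibition of NCI-H650 cells, read out by a viability assay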
Description: SANGER: Inhibition of human NCI-H650 cell growth in a cell viability assay.

A-427 = type: functional, cell-based, Homo sapiens; settings: Homo sapiens, A-427;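 further: growth inhibition of human A-427 cells, read out by a cell viability assay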
Description: SANGER: Inhibition of human A427 cell growth in a cell viability assay.

NCI-H596 = type: functional, cell-based, Homo sapiens; settings: Homo sapiens, NCI-H596;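 further: growth inhibition of NCI-H596 cells, read out with a cell viability assay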
Description: SANGER: Inhibition of human NCI-H596 cell growth in a cell viability assay.

CaR-1 = type: functional, cell-based, Homo sapiens; settings: Homo sapiens, CaR-1;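 further: growth inhibition of human CaR-1 cancer cells, read out with a cell viability assay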
Description: SANGER: Inhibition of human CaR-1 cell growth in a cell viability assay.

YKG-1 = type: functional, cell-based, Homo sapiens; settings: Homo sapiens, YKG-1;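 further: cell growth inhibition, read out with a viability assay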
Description: SANGER: Inhibition of human YKG-1 cell growth in a cell viability assay.

RPMI-7951 = type: functional, cell-based, Homo sapiens; settings: Homo sapiens, RPMI-7951
Description: SANGER: Inhibition of human RPMI-7951 cell growth in a cell viability assay.

NCI-H2122 = type: functional, cell-based, Homo sapiens; settings: Homo sapiens, NCI-H2122;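 further: growth inhibition of the cells, read out with a cell viability assay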
Description: SANGER: Inhibition of human NCI-H2122 cell growth in a cell viability assay.

HTC-C3 = type: functional, cell-based, Homo sapiens; settings: Homo sapiens, HTC-C3;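 further: inhibition of cell growth, read out with a cell viability assay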
Description: SANGER: Inhibition of human HTC-C3 cell growth in a cell viability assay.

TCC-SUP = type: functional, cell-based, Homo sapiens; settings: Homo sapiens, TCC-SUP;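 further: growth inhibition of TCC-SUP cells, read out with a cell viability assay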
Description: SANGER: Inhibition of human TCCSUP cell growth in a cell viability assay.

AGS = type: functional, cell-based, Homo sapiens; settings: Homo sapiens, AGS;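 further: growth inhibition of AGS cells, determined with a cell viability assay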
Description: SANGER: Inhibition of human AGS cell growth in a cell viability assay.

SW780 = type: functional, cell-based, Homo sapiens; settings: Homo sapiens, SW780;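 further: growth inhibition of the cells, read out with a cell viability assay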
Description: SANGER: Inhibition of human SW780 cell growth in a cell viability assay.

8305C = type: functional, cell-based, Homo sapiens; settings: Homo sapiens, 8305C
Description: SANGER: Inhibition of human 8305C cell growth in a cell viability assay.

HCT-15 = type: functional, cell-based, Homo sapiens; settings: Homo sapiens, HCT-15;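 further: cell viability readout, IC50 reflecting suppression of HCT-15 cell growth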
Description: SANGER: Inhibition of human HCT-15 cell growth in a cell viability assay.

Structure (SMILES): COc1cc(N2CCN(C)CC2)ccc1Nc1ncc2c(n1)N(C)c1ccccc1C(=O)N2C
- pIC50 (OPM-2): 5.48
- pIC50 (CMK): 5.41
- pIC50 (SCC-3): < 5.10
- pIC50 (NCI-H1694): < 5.10
- pIC50 (SIMA): < 5.10
- pIC50 (SR): 5.19
- pIC50 (SK-MM-2): 5.59
- pIC50 (Kasumi 1): < 5.10

Structure (SMILES): CCC/C=C/C=C/C(=O)O[C@H]1/C(=C/C(=O)OC)C[C@H]2C[C@H]([C@@H](C)O)OC(=O)C[C@H](O)C[C@@H]3C[C@H](OC(C)=O)C(C)(C)[C@](O)(C[C@@H]4C/C(=C/C(=O)OC)C[C@H](/C=C/C(C)(C)[C@]1(O)O2)O4)O3 [BRYOSTATIN 1]
- pIC50 (T47D): < 8.10
- pIC50 (NCI-H441): < 8.10
- pIC50 (SCC-4): < 8.10
- pIC50 (COR-L105): < 8.10
- pIC50 (BEN): < 8.10
- pIC50 (A2780): < 8.10
- pIC50 (HOP-92): < 8.10
- pIC50 (NCI-H358): < 8.10
- pIC50 (CAL-27): < 8.10
- pIC50 (OE33): < 8.10
- pIC50 (NCI-H1651): < 8.10
- pIC50 (OPM-2): < 8.10
- pIC50 (Hs-578T): < 8.10
- pIC50 (NCI-H727): < 8.10
- pIC50 (CMK): < 8.10
- pIC50 (A2058): < 8.10
- pIC50 (NCI-H2030): < 8.10
- pIC50 (CHL-1): < 8.10
- pIC50 (EHEB): < 8.10
- pIC50 (HuO-3N1): < 8.10
- pIC50 (SCC-3): < 8.10
- pIC50 (COLO-679): < 8.10
- pIC50 (PC-14): < 8.10
- pIC50 (SW1710): < 8.10
- pIC50 (DOK): < 8.10
- pIC50 (GMS-10): < 8.10
- pIC50 (NCI-H1793): < 8.10
- pIC50 (NCI-H1694): < 8.10
- pIC50 (U-118-MG): < 8.10
- pIC50 (SK-HEP1): < 8.10
- pIC50 (NCI-H292): < 8.10
- pIC50 (UACC-893): < 8.10
- pIC50 (NCI-H650): < 8.10
- pIC50 (A-427): < 8.10
- pIC50 (NCI-H596): < 8.10
- pIC50 (CaR-1): < 8.10
- pIC50 (SIMA): < 8.10
- pIC50 (SR): < 8.10
- pIC50 (SK-MM-2): < 8.10
- pIC50 (YKG-1): 8.38
- pIC50 (RPMI-7951): < 8.10
- pIC50 (NCI-H2122): < 8.10
- pIC50 (HTC-C3): < 8.10
- pIC50 (TCC-SUP): < 8.10
- pIC50 (AGS): < 8.10
- pIC50 (SW780): < 8.10
- pIC50 (8305C): < 8.10
- pIC50 (HCT-15): < 8.10

Structure (SMILES): C=C(c1ccc(C(=O)O)cc1)c1cc2c(cc1C)C(C)(C)CCC2(C)C [BEXAROTENE]
- pIC50 (T47D): < 5.10
- pIC50 (NCI-H441): < 5.10
- pIC50 (SCC-4): < 5.10
- pIC50 (COR-L105): < 5.10
- pIC50 (BEN): < 5.10
- pIC50 (A2780): < 5.10
- pIC50 (HOP-92): < 5.10
- pIC50 (NCI-H358): < 5.10
- pIC50 (CAL-27): < 5.10
- pIC50 (OE33): < 5.10
- pIC50 (NCI-H1651): < 5.10
- pIC50 (OPM-2): < 5.10
- pIC50 (Hs-578T): < 5.10
- pIC50 (NCI-H727): < 5.10
- pIC50 (CMK): < 5.10
- pIC50 (A2058): < 5.10
- pIC50 (NCI-H2030): < 5.10
- pIC50 (CHL-1): < 5.10
- pIC50 (EHEB): < 5.10
- pIC50 (HuO-3N1): < 5.10
- pIC50 (SCC-3): < 5.10
- pIC50 (COLO-679): < 5.10
- pIC50 (PC-14): < 5.10
- pIC50 (SW1710): < 5.10
- pIC50 (DOK): < 5.10
- pIC50 (GMS-10): < 5.10
- pIC50 (NCI-H1793): < 5.10
- pIC50 (NCI-H1694): < 5.10
- pIC50 (U-118-MG): < 5.10
- pIC50 (SK-HEP1): < 5.10
- pIC50 (NCI-H292): < 5.10
- pIC50 (UACC-893): < 5.10
- pIC50 (NCI-H650): < 5.10
- pIC50 (A-427): 5.22
- pIC50 (NCI-H596): < 5.10
- pIC50 (CaR-1): < 5.10
- pIC50 (SIMA): < 5.10
- pIC50 (SR): < 5.10
- pIC50 (SK-MM-2): < 5.10
- pIC50 (YKG-1): < 5.10
- pIC50 (RPMI-7951): < 5.10
- pIC50 (NCI-H2122): 5.31
- pIC50 (HTC-C3): < 5.10
- pIC50 (TCC-SUP): < 5.10
- pIC50 (AGS): < 5.10
- pIC50 (SW780): < 5.10
- pIC50 (8305C): < 5.10
- pIC50 (HCT-15): < 5.10

Structure (SMILES): Oc1ccc2ccccc2c1SSc1c(O)ccc2ccccc12
- pIC50 (T47D): < 4.49
- pIC50 (NCI-H441): < 4.49
- pIC50 (SCC-4): < 4.49
- pIC50 (COR-L105): 5.13
- pIC50 (BEN): < 4.49
- pIC50 (A2780): 4.55
- pIC50 (HOP-92): < 4.49
- pIC50 (NCI-H358): < 4.49
- pIC50 (CAL-27): < 4.49
- pIC50 (OE33): < 4.49
- pIC50 (NCI-H1651): < 4.49
- pIC50 (OPM-2): < 4.49
- pIC50 (Hs-578T): < 4.49
- pIC50 (NCI-H727): 4.70
- pIC50 (CMK): 5.50
- pIC50 (A2058): < 4.49
- pIC50 (NCI-H2030): < 4.49
- pIC50 (CHL-1): 4.92
- pIC50 (EHEB): 5.07
- pIC50 (HuO-3N1): < 4.49
- pIC50 (SCC-3): < 4.49
- pIC50 (COLO-679): 4.54
- pIC50 (PC-14): < 4.49
- pIC50 (SW1710): 5.93
- pIC50 (DOK): < 4.49
- pIC50 (GMS-10): < 4.49
- pIC50 (NCI-H1793): < 4.49
- pIC50 (NCI-H1694): < 4.49
- pIC50 (U-118-MG): < 4.49
- pIC50 (SK-HEP1): < 4.49
- pIC50 (NCI-H292): < 4.49
- pIC50 (UACC-893): < 4.49
- pIC50 (NCI-H650): < 4.49
- pIC50 (A-427): < 4.49
- pIC50 (NCI-H596): < 4.49
- pIC50 (CaR-1): < 4.49
- pIC50 (SIMA): < 4.49
- pIC50 (SR): 5.27
- pIC50 (SK-MM-2): < 4.49
- pIC50 (YKG-1): < 4.49
- pIC50 (RPMI-7951): < 4.49
- pIC50 (NCI-H2122): < 4.49
- pIC50 (HTC-C3): < 4.49
- pIC50 (TCC-SUP): < 4.49
- pIC50 (AGS): < 4.49
- pIC50 (SW780): < 4.49
- pIC50 (8305C): 5.38
- pIC50 (HCT-15): < 4.49
